Reference: PubChem BioAssay AID1259407 (Chemical Carcinogenesis Research Information System (CCRIS), 2018)
Activity calls are given as the source filed them. The rule behind the calls is not given here.

Tested on: CCRIS mutagenicity, Ames/micronucleus/aberration tests
Test: CCRIS mutagenicity studies
[1] = Test System: AMES SALMONELLA TYPHIMURIUM, Strain/Indicator: TA98, Metabolic Activation: NONE, Method: STANDARD PLATE
[2] = Test System: AMES SALMONELLA TYPHIMURIUM, Strain/Indicator: TA100, Metabolic Activation: NONE, Method: STANDARD PLATE

c1ccc2c(c1)oc1ccccc12
mutagenic call (End Point: IN VITRO CHROMOSOMAL ABERRATIONS, Test System: CHINESE HAMSTER OVARY CELLS, Metabolic Activation: NONE): inactive; negative
mutagenic call (End Point: IN VITRO CHROMOSOMAL ABERRATIONS, Test System: CHINESE HAMSTER OVARY CELLS, Metabolic Activation: RAT, LIVER, S-9, AROCLOR 1254): inactive; negative
mutagenic call (Test System: AMES SALMONELLA TYPHIMURIUM, Strain/Indicator: TA98, Metabolic Activation: HAMSTER LIVER S-9, AROCLOR 1254, Method: STANDARD PLATE): inactive; negative
mutagenic call [1]: inactive; negative
mutagenic call (Test System: AMES SALMONELLA TYPHIMURIUM, Strain/Indicator: TA98, Metabolic Activation: RAT LIVER S-9, AROCLOR 1254, Method: STANDARD PLATE): inactive; negative
mutagenic call (Test System: AMES SALMONELLA TYPHIMURIUM, Strain/Indicator: TA98, Metabolic Activation: RAT, LIVER, S-9, PHENOBARBITAL AND NAPHTHOFLAVONE, Method: STANDARD PLATE): inactive; negative
mutagenic call (Test System: AMES SALMONELLA TYPHIMURIUM, Strain/Indicator: TA98, Metabolic Activation: S-9, PHENOBARBITAL AND 5,6-BENZOFLAVONE, Method: STANDARD PLATE): inactive; negative
mutagenic call (Test System: AMES SALMONELLA TYPHIMURIUM, Strain/Indicator: TA100, Metabolic Activation: HAMSTER LIVER S-9, AROCLOR 1254, Method: STANDARD PLATE): inactive; negative
mutagenic call [2]: inactive; negative
mutagenic call (Test System: AMES SALMONELLA TYPHIMURIUM, Strain/Indicator: TA100, Metabolic Activation: RAT LIVER S-9, AROCLOR 1254, Method: STANDARD PLATE): inactive; negative
mutagenic call (Test System: AMES SALMONELLA TYPHIMURIUM, Strain/Indicator: TA100, Metabolic Activation: RAT, LIVER, S-9, PHENOBARBITAL AND NAPHTHOFLAVONE, Method: STANDARD PLATE): inactive; negative
mutagenic call (Test System: AMES SALMONELLA TYPHIMURIUM, Strain/Indicator: TA100, Metabolic Activation: S-9, PHENOBARBITAL AND 5,6-BENZOFLAVONE, Method: STANDARD PLATE): inactive; negative

[Be+2]
mutagenic call (Test System: AMES SALMONELLA TYPHIMURIUM, Strain/Indicator: TA98, Metabolic Activation: NONE, Method: PREINCUBATION): inactive; negative
mutagenic call (Test System: AMES SALMONELLA TYPHIMURIUM, Strain/Indicator: TA98, Metabolic Activation: RAT, LIVER, S-9, (10%), Method: PREINCUBATION): inactive; negative
mutagenic call (Test System: AMES SALMONELLA TYPHIMURIUM, Strain/Indicator: TA100, Metabolic Activation: NONE, Method: PREINCUBATION): inactive; negative
mutagenic call (Test System: AMES SALMONELLA TYPHIMURIUM, Strain/Indicator: TA100, Metabolic Activation: RAT,LIVER, S-9 (10%), Method: PREINCUBATION): inactive; negative

O=C(O)c1ccccn1
mutagenic call (Test System: AMES SALMONELLA TYPHIMURIUM, Strain/Indicator: TA98, Metabolic Activation: HAMSTER, LIVER, S-9, AROCLOR 1254, Method: STANDARD PLATE): inactive; negative
mutagenic call [1]: inactive; negative
mutagenic call (Test System: AMES SALMONELLA TYPHIMURIUM, Strain/Indicator: TA98, Metabolic Activation: RAT, LIVER, S-9, AROCLOR 1254, Method: STANDARD PLATE): inactive; negative
mutagenic call (Test System: AMES SALMONELLA TYPHIMURIUM, Strain/Indicator: TA100, Metabolic Activation: HAMSTER, LIVER, S-9, AROCLOR 1254, Method: STANDARD PLATE): inactive; negative
mutagenic call [2]: inactive; negative
mutagenic call (Test System: AMES SALMONELLA TYPHIMURIUM, Strain/Indicator: TA100, Metabolic Activation: RAT, LIVER, S-9, AROCLOR 1254, Method: STANDARD PLATE): inactive; negative
mutagenic call (Test System: AMES SALMONELLA TYPHIMURIUM, Strain/Indicator: TA1535, Metabolic Activation: HAMSTER, LIVER, S-9, AROCLOR 1254, Method: STANDARD PLATE): inactive; negative
mutagenic call (Test System: AMES SALMONELLA TYPHIMURIUM, Strain/Indicator: TA1535, Metabolic Activation: NONE, Method: STANDARD PLATE): inactive; negative
mutagenic call (Test System: AMES SALMONELLA TYPHIMURIUM, Strain/Indicator: TA1535, Metabolic Activation: RAT, LIVER, S-9, AROCLOR 1254, Method: STANDARD PLATE): inactive; negative
mutagenic call (Test System: AMES SALMONELLA TYPHIMURIUM, Strain/Indicator: TA1537, Metabolic Activation: HAMSTER, LIVER, S-9, AROCLOR 1254, Method: STANDARD PLATE): inactive; negative
mutagenic call (Test System: AMES SALMONELLA TYPHIMURIUM, Strain/Indicator: TA1537, Metabolic Activation: NONE, Method: STANDARD PLATE): inactive; negative
mutagenic call (Test System: AMES SALMONELLA TYPHIMURIUM, Strain/Indicator: TA1537, Metabolic Activation: RAT, LIVER, S-9, AROCLOR 1254, Method: STANDARD PLATE): inactive; negative
mutagenic call (Test System: CHINESE HAMSTER OVARY CELLS, Strain/Indicator: CHO CELLS (HPRT)/6-THIOGUANINE, Metabolic Activation: NONE, Method: STANDARD PLATE): inactive; negative
mutagenic call (Test System: MOUSE LYMPHOMA CELLS, Strain/Indicator: L5178Y TK+/-, Metabolic Activation: NONE, Method: TFT RESISTANCE): inactive; negative
mutagenic call (Test System: MOUSE LYMPHOMA CELLS, Strain/Indicator: L5178Y TK+/-, Metabolic Activation: RAT, LIVER, S-9, AROCLOR 1254, Method: TFT RESISTANCE): inactive; negative
mutagenic call (Test System: MOUSE LYMPHOMA, Strain/Indicator: L5178Y (TK+/TK-), Metabolic Activation: NONE, Method: SUSPENSION/PLATE): active; positive. reevaluation of results: equivocal
mutagenic call (Test System: MOUSE LYMPHOMA, Strain/Indicator: L5178Y (TK+/TK-), Metabolic Activation: RAT, LIVER, S-9, AROCLOR 1254, Method: SUSPENSION/PLATE): active; positive. reevaluation of results: equivocal
